Converted amounts (≈) assume the structure as drawn. The source made the active and inactive calls. No cut-off for these calls is given here.
Experiments:
Staphylococcus aureus [1] = experiment: Antibiofilm activity against Staphylococcus aureus ATCC 25923 after 24 hrs by crystal violet staining based assay; type: functional, organism-based
Klebsiella pneumoniae [2] = experiment: Potentiation of rifampicin-induced antibacterial activity against Klebsiella pneumoniae ATCC 700603 assessed as FICI after 18 hrs by checker board assay; type: functional
[3] = Selectivity index, ratio of MHC10 for human RBC to geometric mean of peptide MIC for gram negative bacteria; type: toxicity; conditions: human red blood cells, read-out: Selectivity Index
[4] = Selectivity index, ratio of MHC10 for human RBC to geometric mean of peptide MIC for gram positive bacteria; type: toxicity; conditions: human red blood cells, read-out: Selectivity Index
Staphylococcus aureus [5] = experiment: Ratio of antibacterial activity against Staphylococcus aureus ATCC 25923 in presence of FeCl3 to antibacterial activity against Staphylococcus aureus ATCC 25923; type: functional
Escherichia coli [6] = experiment: Ratio of antibacterial activity against Escherichia coli ATCC 25922 in presence of FeCl3 to antibacterial activity against Escherichia coli ATCC 25922; type: functional
Escherichia coli [7] = experiment: Induction of membrane disruption in Escherichia coli ATCC 25922 assessed as corrugated membrane surface at 4 times of MIC after 2 hrs by SEM analysis; type: functional, organism-based
Pseudomonas aeruginosa [8] = experiment: Potentiation of polymyxin B-induced antibacterial activity against Pseudomonas aeruginosa ATCC 27853 assessed as FICI after 18 hrs by checker board assay; type: functional
Escherichia coli [9] = experiment: Ratio of antibacterial activity against Escherichia coli ATCC 25922 in presence of KCl to antibacterial activity against Escherichia coli ATCC 25922; type: functional
Staphylococcus aureus [10] = experiment: Ratio of antibacterial activity against Staphylococcus aureus ATCC 25923 in presence of NaCl to antibacterial activity against Staphylococcus aureus ATCC 25923; type: functional
Klebsiella pneumoniae [11] = experiment: Antibacterial activity against Klebsiella pneumoniae ATCC 700603 after 18 hrs by CLSI based broth microdilution method; type: functional; conditions: Klebsiella pneumoniae, 700603, 18 h
Pseudomonas aeruginosa [12] = experiment: Potentiation of rifampicin-induced antibacterial activity against Pseudomonas aeruginosa ATCC 27853 assessed as FICI after 18 hrs by checker board assay; type: functional
Escherichia coli [13] = experiment: Induction of membrane disruption in Escherichia coli ATCC 25922 assessed as degeneration in membrane at 4 times of MIC after 2 hrs by SEM analysis; type: functional, organism-based
Escherichia coli [14] = experiment: Induction of inner membrane permeabilization in Escherichia coli ATCC 43837 assessed as increase in ONPG release at 4 times of MIC by ONPG dye based assay; type: organism-based
Escherichia coli [15] = experiment: Ratio of MIC for Escherichia coli ATCC 25922 preincubated for 6 hrs in presence of 10% mouse serum and measured after 18 hrs to MIC for antibacterial activity against Escherichia coli ATCC 25922 after 18 hrs; type: functional
Escherichia coli [16] = experiment: Ratio of MIC for Escherichia coli ATCC 25922 preincubated for 1 hr in presence of 10% mouse serum and measured after 18 hrs to MIC for antibacterial activity against Escherichia coli ATCC 25922 after 18 hrs; type: functional
Escherichia coli [17] = experiment: Antimicrobial activity against Escherichia coli ATCC 25922 at 1 mM preincubated for 6 hrs in presence of 2000 ug/ml trypsin and measured after 18 hrs by microplate reader analysis; type: functional, organism-based
Escherichia coli [18] = experiment: Antibacterial activity against Escherichia coli ATCC 43837 after 18 hrs by CLSI based broth microdilution method; type: functional; conditions: ATCC 43837, 18 h
Pseudomonas aeruginosa [19] = experiment: Antibiofilm activity against Pseudomonas aeruginosa ATCC 27853 after 24 hrs by crystal violet staining based assay; type: functional, organism-based
Escherichia coli [20] = experiment: Induction of inner membrane permeabilization in Escherichia coli ATCC 43837 assessed as increase in ONPG release at 1 to 2 times of MIC by ONPG dye based assay; type: organism-based
Escherichia coli [21] = experiment: Antibiofilm activity against Escherichia coli ATCC 25922 after 24 hrs by crystal violet staining based assay; type: functional, organism-based
Staphylococcus aureus [22] = experiment: Ratio of antibacterial activity against Staphylococcus aureus ATCC 25923 in presence of MgCl2 to antibacterial activity against Staphylococcus aureus ATCC 25923; type: functional
Staphylococcus aureus [23] = experiment: Antibacterial activity against Staphylococcus aureus ATCC 25923 after 18 hrs by CLSI based broth microdilution method; type: functional; conditions: ATCC 25923, 18 h
Escherichia coli [24] = experiment: Potentiation of rifampicin-induced antibacterial activity against Escherichia coli ATCC 25922 assessed as FICI after 18 hrs by checker board assay; type: functional
Escherichia coli [25] = experiment: Ratio of antibacterial activity against Escherichia coli ATCC 25922 in presence of NaCl to antibacterial activity against Escherichia coli ATCC 25922; type: functional
Klebsiella pneumoniae [26] = experiment: Potentiation of polymyxin B-induced antibacterial activity against Klebsiella pneumoniae ATCC 700603 assessed as FICI after 18 hrs by checker board assay; type: functional
Bacillus subtilis = experiment: Antibacterial activity against Bacillus subtilis ATCC 23857 after 18 hrs by CLSI based broth microdilution method; type: functional; conditions: ATCC 23857, 18 h
DNA = experiment: Binding affinity to Escherichia coli ATCC 25922 genomic DNA after 30 mins by agarose gel electrophoresis; type: nucleic-acid assay
Escherichia coli [27] = experiment: Antibacterial activity against Escherichia coli ATCC 25922 after 18 hrs by CLSI based broth microdilution method; type: functional; conditions: ATCC 25922, 18 h
Escherichia coli [28] = experiment: Disruption of membrane integrity in Escherichia coli ATCC 25922 assessed as membrane damage by measuring PI fluorescence at 4 times of MIC incubated for 1 hr by PI dye based flow cytometric analysis (reference value: 1.35%); type: functional
Escherichia coli [29] = experiment: Induction of outer membrane permeabilization in Escherichia coli ATCC 25922 measured up to 12 mins by NPN-dye based assay; type: organism-based
Staphylococcus aureus [30] = experiment: Antibacterial activity against methicillin-resistant Staphylococcus aureus 936 after 18 hrs by CLSI based broth microdilution method; type: functional; conditions: Staphylococcus aureus, 936, 18 h
Pseudomonas aeruginosa [31] = experiment: Antibacterial activity against Pseudomonas aeruginosa ATCC 27853 after 18 hrs by CLSI based broth microdilution method; type: functional; conditions: ATCC 27853, 18 h
Escherichia coli [32] = experiment: Potentiation of polymyxin B-induced antibacterial activity against Escherichia coli ATCC 25922 assessed as FICI after 18 hrs by checker board assay; type: functional
Escherichia coli [33] = experiment: Induction of membrane disruption in Escherichia coli ATCC 25922 assessed as rough membrane surface at 4 times of MIC after 2 hrs by SEM analysis; type: functional, organism-based
Escherichia coli [34] = experiment: Ratio of antibacterial activity against Escherichia coli ATCC 25922 in presence of MgCl2 to antibacterial activity against Escherichia coli ATCC 25922; type: functional
Escherichia coli [35] = experiment: Antibiofilm activity against Escherichia coli ATCC 25922 at 2 times MIC after 24 hrs by crystal violet staining based assay; type: functional, organism-based
Staphylococcus aureus [36] = experiment: Ratio of antibacterial activity against Staphylococcus aureus ATCC 25923 in presence of KCl to antibacterial activity against Staphylococcus aureus ATCC 25923; type: functional
Escherichia coli [37] = experiment: Induction of ROS generation in Escherichia coli ATCC 25922; type: functional, organism-based
Erythrocyte = experiment: Hemolytic activity in human RBC measured after 1 hr by microplate reader analysis; type: ADME, cell-based
Escherichia coli [38] = experiment: Induction of membrane disruption in Escherichia coli ATCC 25922 assessed as fracture in membrane at 4 times of MIC after 2 hrs by SEM analysis; type: functional, organism-based

CCCCCCCCCCCC(=O)NCC(=O)N[C@@H](CC(C)C)C(=O)N[C@@H](CC(C)C)C(=O)N[C@H](CCCCN)C(=O)N[C@@H](CCCNC(=N)N)C(=O)N[C@H](C(=O)N[C@H](CCCCN)C(=O)N[C@H](C(=O)N[C@@H](CC(C)C)C(=O)N[C@@H](CC(C)C)C(N)=O)[C@@H](C)O)[C@@H](C)CC
inhibition (Staphylococcus aureus [1]): Dose-dependent effect
fractional inhibitory concentration index (FICI) (Klebsiella pneumoniae [2]): 0.5625
selectivity ratio [3]: 1.14
selectivity ratio [4]: 2.18
Ratio (Staphylococcus aureus [5]): 2 - 4
Ratio (Escherichia coli [6]): 2 - 4
Activity (Escherichia coli [7]): Active
fractional inhibitory concentration index (FICI) (Pseudomonas aeruginosa [8]): 0.1875
Ratio (Escherichia coli [9]): 2 - 4
Ratio (Staphylococcus aureus [10]): 2 - 4
MIC (Klebsiella pneumoniae [11]): 8 µM (≈ 10.7 µg/mL)
fractional inhibitory concentration index (FICI) (Pseudomonas aeruginosa [12]): 0.3125
Activity (Escherichia coli [13]): Active
Activity (Escherichia coli [14]): Active
Ratio (Escherichia coli [15]): 2
Ratio (Escherichia coli [16]): 1
Activity (Escherichia coli [17]): Active
MIC (Escherichia coli [18]): 16 µM (≈ 21.4 µg/mL)
inhibition (Pseudomonas aeruginosa [19]): Dose-dependent effect
Activity (Escherichia coli [20]): Active
inhibition (Escherichia coli [21]): Dose-dependent effect
Ratio (Staphylococcus aureus [22]): 2 - 4
MIC (Staphylococcus aureus [23]): 4 µM (≈ 5.34 µg/mL)
fractional inhibitory concentration index (FICI) (Escherichia coli [24]): 0.5625
Ratio (Escherichia coli [25]): 2 - 4
fractional inhibitory concentration index (FICI) (Klebsiella pneumoniae [26]): 0.3125
MIC (Bacillus subtilis): 2 µM (≈ 2.67 µg/mL)
Activity (DNA): Dose-dependent effect
MIC (Escherichia coli [27]): 16 µM (≈ 21.4 µg/mL)
Activity (Escherichia coli [28]): 94.7%
Activity (Escherichia coli [29]): Dose-dependent effect
MIC (Staphylococcus aureus [30]): 16 µM (≈ 21.4 µg/mL)
MIC (Pseudomonas aeruginosa [31]): 16 µM (≈ 21.4 µg/mL)
fractional inhibitory concentration index (FICI) (Escherichia coli [32]): 0.1875
Activity (Escherichia coli [33]): Active
Ratio (Escherichia coli [34]): 2 - 4
inhibition (Escherichia coli [35]): Active
Ratio (Staphylococcus aureus [36]): 2 - 4
Activity (Escherichia coli [37]): inactive
MHC10 (Erythrocyte): 16 µM
Activity (Escherichia coli [38]): Active

— ChEMBL document CHEMBL4359906, “Design and synthesis of new N-terminal fatty acid modified-antimicrobial peptide analogues with potent in vitro biological activity” (Eur J Med Chem, 2019)
